≈ marks a conversion by molar mass, not a printed value. Read-outs that look alike come from different tables or passages of the source. Positions of bridges follow the written chain, without caps; N, C: chain ends. Non-standard residues stand in square brackets, D forms with d. Residues, ends and D or L forms follow the SMILES beside them. S5 = C=CCCC[C@](C)(N)C(=O)O; Nle = CCCC[C@H](N)C(=O)O
Experiments:
Type in all cases: cell-based
[1] = system: B cereus
Experimental: (§1) The following microbroth dilution protocol was adapted to determine the minimum inhibitory concentration (MIC) of each peptide. First, Mueller-Hinton broth (MHB) was passed through an anion exchange column to remove polyanionic species and generate refined MHB. […] Briefly, bacterial cells were grown overnight in refined MHB at 37° C. and then diluted and allowed to grow again for several hours. Serial dilutions of peptide stocks in water (10 μl) were prepared using clear round-bottom polypropylene 96-well plates. Then 90 μl of bacteria in refined MHB was added to give a final inoculum of 5×10^5 CFU/ml. The plates were then covered with porous tape to reduce evaporation, and incubated for 20-24 hours at 37° C. The MIC is the minimum peptide concentration at which no visible growth was observed.

[2] = system: E coli
Experimental: as §1

[3] = system: P aeruginosa
Experimental: as §1

[4] = system: S aureus
Experimental: as §1

[5] = system: A. baumannii clinical isolates
Experimental: (§2) StAMPs were screened against a panel of MDR clinical samples obtained from the Antimicrobial Resistance Isolate Bank of the Centers for Disease Control and Prevention (Atlanta, Ga.).
as §1
(§3) The first three StAMPs of Table 2 in Example 3 were then tested against 39 clinical isolates of A. baumannii with various degrees of colistin resistance (Table 3, 4).

[6] = system: E. coli clinical isolates that harbor the MCR-1 plasmid
Experimental: as §2, §1, §3

Compound: CCCC[C@H](NC(=O)[C@]1(C)CCCC=CCCC[C@](C)(NC(=O)[C@H](C)NC(=O)[C@H](CCCCN)NC(=O)CNC(=O)[C@H](Cc2ccccc2)NC(=O)[C@H](CCCCN)NC(=O)[C@H](CCCCN)NC(=O)[C@H](CCCCN)NC(=O)[C@H](CO)NC(=O)[C@H](Cc2c[nH]cn2)NC(=O)[C@]2(C)CCCC=CCCC[C@](C)(NC(=O)CN)C(=O)NCC(=O)N[C@@H](Cc3c[nH]cn3)C(=O)N[C@@H](Cc3ccccc3)C(=O)N2)C(=O)N[C@@H](C(C)C)C(=O)NCC(=O)N[C@@H](CCC(=O)O)C(=O)N1)C(=O)N[C@@H](CC(N)=O)C(=O)N[C@@H](CO)C(N)=O [Mag(i+4)1,15(A9K, K4H), GXGHFXHSKKKFGKAXVGEXBNS] (H-G[S5]GHF[S5]HSKKKFGKA[S5]VGE[S5][Nle]NS-NH2; staple 2-6, 16-20; N-terminus and C-terminus assumed)
- MIC B cereus [1]: 25 µg/mL (≈ 9.89 µM)
- MIC E coli [2]: 3.1 µg/mL (≈ 1.23 µM)
- MIC P aeruginosa [3]: 6.2 µg/mL (≈ 2.45 µM)
- MIC S aureus [4]: >50 µg/mL

Compound: CCCC[C@H](NC(=O)[C@]1(C)CCCC=CCCC[C@](C)(NC(=O)[C@H](C)NC(=O)[C@H](CCCCN)NC(=O)CNC(=O)[C@H](Cc2ccccc2)NC(=O)[C@H](CCCCN)NC(=O)[C@H](Cc2c[nH]cn2)NC(=O)[C@H](CCCCN)NC(=O)[C@H](CO)NC(=O)[C@H](Cc2c[nH]cn2)NC(=O)[C@]2(C)CCCC=CCCC[C@](C)(NC(=O)CN)C(=O)NCC(=O)N[C@@H](Cc3c[nH]cn3)C(=O)N[C@@H](Cc3ccccc3)C(=O)N2)C(=O)N[C@@H](C(C)C)C(=O)NCC(=O)N[C@@H](CCC(=O)O)C(=O)N1)C(=O)N[C@@H](CC(N)=O)C(=O)N[C@@H](CO)C(N)=O [Mag(i+4)1,15(A9K, K4H, K10H), GXGHFXHSKHKFGKAXVGEXBNS] (H-G[S5]GHF[S5]HSKHKFGKA[S5]VGE[S5][Nle]NS-NH2; staple 2-6, 16-20)
- MIC B cereus [1]: 50 µg/mL (≈ 19.7 µM)
- MIC E coli [2]: 3.1 µg/mL (≈ 1.22 µM)
- MIC P aeruginosa [3]: 50 µg/mL (≈ 19.7 µM)
- MIC S aureus [4]: >50 µg/mL

Compound: CCCC[C@H](NC(=O)[C@]1(C)CCCC=CCCC[C@](C)(NC(=O)[C@H](C)NC(=O)[C@H](CCCCN)NC(=O)CNC(=O)[C@H](Cc2ccccc2)NC(=O)[C@H](Cc2c[nH]cn2)NC(=O)[C@H](Cc2c[nH]cn2)NC(=O)[C@H](CCCCN)NC(=O)[C@H](CO)NC(=O)[C@H](Cc2c[nH]cn2)NC(=O)[C@]2(C)CCCC=CCCC[C@](C)(NC(=O)CN)C(=O)NCC(=O)N[C@@H](Cc3c[nH]cn3)C(=O)N[C@@H](Cc3ccccc3)C(=O)N2)C(=O)N[C@@H](C(C)C)C(=O)NCC(=O)N[C@@H](CCC(=O)O)C(=O)N1)C(=O)N[C@@H](CC(N)=O)C(=O)N[C@@H](CO)C(N)=O [Mag(i+4)1,15(A9K, K4H, K10H, K11H), GXGHFXHSKHHFGKAXVGEXBNS] (H-G[S5]GHF[S5]HSKHHFGKA[S5]VGE[S5][Nle]NS-NH2; staple 2-6, 16-20)
- MIC B cereus [1]: >50 µg/mL
- MIC E coli [2]: 17.7 µg/mL (≈ 6.95 µM)
- MIC P aeruginosa [3]: 50 µg/mL (≈ 19.6 µM)
- MIC S aureus [4]: >50 µg/mL

Compound: CCCC[C@H](NC(=O)[C@]1(C)CCCC=CCCC[C@](C)(NC(=O)[C@H](C)NC(=O)[C@H](CCCCN)NC(=O)CNC(=O)[C@H](Cc2ccccc2)NC(=O)[C@H](CCCCN)NC(=O)[C@H](CCCCN)NC(=O)[C@H](CCCCN)NC(=O)[C@H](CO)NC(=O)[C@H](Cc2c[nH]cn2)NC(=O)[C@]2(C)CCCC=CCCC[C@](C)(NC(=O)CN)C(=O)NCC(=O)N[C@@H](CCCNC(=N)N)C(=O)N[C@@H](Cc3ccccc3)C(=O)N2)C(=O)N[C@@H](C(C)C)C(=O)NCC(=O)N[C@@H](CCC(=O)O)C(=O)N1)C(=O)N[C@@H](CC(N)=O)C(=O)N[C@@H](CO)C(N)=O [Mag(i+4)1,15(A9K, K4R), GXGRFXHSKKKFGKAXVGEXBNS] (H-G[S5]GRF[S5]HSKKKFGKA[S5]VGE[S5][Nle]NS-NH2; staple 2-6, 16-20; N-terminus and C-terminus assumed)
- MIC B cereus [1]: 12.5 µg/mL (≈ 4.91 µM)
- MIC E coli [2]: 3.1 µg/mL (≈ 1.22 µM)
- MIC P aeruginosa [3]: 6.2 µg/mL (≈ 2.43 µM)
- MIC S aureus [4]: >50 µg/mL

Compound: CCCC[C@H](NC(=O)[C@]1(C)CCCC=CCCC[C@](C)(NC(=O)[C@H](C)NC(=O)[C@H](CCCCN)NC(=O)CNC(=O)[C@H](Cc2ccccc2)NC(=O)[C@H](CCCCN)NC(=O)[C@H](CCCNC(=N)N)NC(=O)[C@H](CCCCN)NC(=O)[C@H](CO)NC(=O)[C@H](Cc2c[nH]cn2)NC(=O)[C@]2(C)CCCC=CCCC[C@](C)(NC(=O)CN)C(=O)NCC(=O)N[C@@H](CCCNC(=N)N)C(=O)N[C@@H](Cc3ccccc3)C(=O)N2)C(=O)N[C@@H](C(C)C)C(=O)NCC(=O)N[C@@H](CCC(=O)O)C(=O)N1)C(=O)N[C@@H](CC(N)=O)C(=O)N[C@@H](CO)C(N)=O [Mag(i+4)1,15(A9K, K4R, K10R), GXGRFXHSKRKFGKAXVGEXBNS] (H-G[S5]GRF[S5]HSKRKFGKA[S5]VGE[S5][Nle]NS-NH2; staple 2-6, 16-20)
- MIC B cereus [1]: 12.5 µg/mL (≈ 4.85 µM)
- MIC E coli [2]: 3.1 µg/mL (≈ 1.2 µM)
- MIC P aeruginosa [3]: 6.2 µg/mL (≈ 2.41 µM)
- MIC S aureus [4]: >50 µg/mL

Compound: Colistin [reference compound]
- Antimicrobial Activity MIC ([5]; A. baumannii CDC Bank# 275): 1 µg/mL
- Antimicrobial Activity MIC ([5]; A. baumannii CDC Bank# 276): 2 µg/mL
- Antimicrobial Activity MIC ([5]; A. baumannii CDC Bank# 277): 1 µg/mL
- Antimicrobial Activity MIC ([5]; A. baumannii CDC Bank# 278): 1 µg/mL
- Antimicrobial Activity MIC ([5]; A. baumannii CDC Bank# 279): 1 µg/mL
- Antimicrobial Activity MIC ([5]; A. baumannii CDC Bank# 280): 1 µg/mL
- Antimicrobial Activity MIC ([5]; A. baumannii CDC Bank# 281): 1 µg/mL
- Antimicrobial Activity MIC ([5]; A. baumannii CDC Bank# 282): 0.5 µg/mL
- Antimicrobial Activity MIC ([5]; A. baumannii CDC Bank# 283): 1 µg/mL
- Antimicrobial Activity MIC ([5]; A. baumannii CDC Bank# 284): 1 µg/mL
- Antimicrobial Activity MIC ([5]; A. baumannii CDC Bank# 285): 1 µg/mL
- Antimicrobial Activity MIC ([5]; A. baumannii CDC Bank# 286): 0.5 µg/mL
- Antimicrobial Activity MIC ([5]; A. baumannii CDC Bank# 287): 1 µg/mL
- Antimicrobial Activity MIC ([5]; A. baumannii CDC Bank# 288): >8 µg/mL
- Antimicrobial Activity MIC ([5]; A. baumannii CDC Bank# 289): 2 µg/mL
- Antimicrobial Activity MIC ([5]; A. baumannii CDC Bank# 290): 1 µg/mL
- Antimicrobial Activity MIC ([5]; A. baumannii CDC Bank# 291): 1 µg/mL
- Antimicrobial Activity MIC ([5]; A. baumannii CDC Bank# 292): 1 µg/mL
- Antimicrobial Activity MIC ([5]; A. baumannii CDC Bank# 293): 0.5 µg/mL
- Antimicrobial Activity MIC ([5]; A. baumannii CDC Bank# 294): 1 µg/mL
- Antimicrobial Activity MIC ([5]; A. baumannii CDC Bank# 295): 1 µg/mL
- Antimicrobial Activity MIC ([5]; A. baumannii CDC Bank# 296): 0.5 µg/mL
- Antimicrobial Activity MIC ([5]; A. baumannii CDC Bank# 297): 1 µg/mL
- Antimicrobial Activity MIC ([5]; A. baumannii CDC Bank# 298): 0.5 µg/mL
- Antimicrobial Activity MIC ([5]; A. baumannii CDC Bank# 299): 2 µg/mL
- Antimicrobial Activity MIC ([5]; A. baumannii CDC Bank# 300): 1 µg/mL
- Antimicrobial Activity MIC ([5]; A. baumannii CDC Bank# 301): 0.5 µg/mL
- Antimicrobial Activity MIC ([5]; A. baumannii CDC Bank# 302): 2 µg/mL
- Antimicrobial Activity MIC ([5]; A. baumannii CDC Bank# 303): >8 µg/mL
- Antimicrobial Activity MIC ([5]; A. baumannii CDC Bank# 304): 4 µg/mL
- Antimicrobial Activity MIC ([5]; A. baumannii CDC Bank# 305): 1 µg/mL
- Antimicrobial Activity MIC ([5]; A. baumannii CDC Bank# 306): 1 µg/mL
- Antimicrobial Activity MIC ([5]; A. baumannii CDC Bank# 307): >8 µg/mL
- Antimicrobial Activity MIC ([5]; A. baumannii CDC Bank# 308): 8 µg/mL
- Antimicrobial Activity MIC ([5]; A. baumannii CDC Bank# 309): 8 µg/mL
- Antimicrobial Activity MIC ([5]; A. baumannii CDC Bank# 310): 8 µg/mL
- Antimicrobial Activity MIC ([5]; A. baumannii CDC Bank# 311): 1 µg/mL
- Antimicrobial Activity MIC ([5]; A. baumannii CDC Bank# 312): 0.5 µg/mL
- Antimicrobial Activity MIC ([5]; A. baumannii CDC Bank# 313): 1 µg/mL
- Antimicrobial Activity MIC ([6]; E. coli CDC Bank# 346, contains MCR-1 plasmid): 2.5 µg/mL
- Antimicrobial Activity MIC ([6]; E. coli CDC Bank# 349, contains MCR-1 plasmid): 1.2 µg/mL

Source: US11325955B2, “Stabilized anti-microbial peptides for the treatment of antibiotic-resistant bacterial infections” (priority 2017, dated 2022)
